Measured values as given in US10414811B2, “Protease-resistant lipidated GLP-1 analogs” (MEDIMMUNE LIMITED, priority 2015, dated 2019).
Like-named read-outs stand apart in the source and are kept apart here. Numbered stars: 1 amine (or outer) side, 2 acyl side, 3 side chain; on linkers, the order of the positions; unused ones are H or OH. Square brackets hold non-standard residues; d marks the D form. Side chains are listed from the residue outwards. Peptide text beside a SMILES is read from it. * marks the point of attachment. γGlu = O=C(O)[C@H](CCC(=O)[*:2])N[*:1]; Palmitoyl = CCCCCCCCCCCCCCCC(=O)*; αMeF = C[C@](N)(Cc1ccccc1)C(=O)O; αMeK = C[C@](N)(CCCCN)C(=O)O; Lauroyl = CCCCCCCCCCCC(=O)*; αMeS = C[C@](N)(CO)C(=O)O; AEEA = NCCOCCOCC(=O)O; Aib = CC(C)(N)C(=O)O

Legend:
[1] = target: T1, human glucagon receptor (GCGR) (Homo sapiens, UniProt P47871); assay: cAMP assay, human GCGR cells; type: cell-based
T1 construct: expressed in transfected cells
Experimental: (§1) Sample dilutions are made in duplicate.
(§2) A frozen cryo-vial of cells expressing the receptor of interest is thawed rapidly in a water-bath, transferred to pre-warmed assay buffer and spun at 240×g for 5 minutes. Cells are re-suspended in assay buffer at a batch-dependent optimized concentration (e.g. hGCGR cells at 2×10^5 cells/ml, hGLP-1R and hGIPR cells at 1×10^5 cells/ml).
(§3) To this, 5 μL cell suspension is added and the plates incubated at room temperature for 30 minutes.
(§4) cAMP levels are measured using a commercially available cAMP dynamic 2 HTRF kit (Cisbio, Cat #62AM4PEJ), following the two step protocol as per manufacturer's recommendations. In brief; anti-cAMP cryptate (donor fluorophore) and cAMP-d2 (acceptor fluorophore) are made up separately by diluting each 1/20 in conjugate & lysis buffer provided in the kit. 5 μL anti-cAMP cryptate is added to wells of the assay plate, and 5 μL cAMP-d2 is added to wells except non-specific binding (NSB) wells, to which conjugate and lysis buffer are added. […] EC50 values of the synthetic peptides determined in cAMP assays are then determined.
(§5) Data is transformed to % Delta F as described in the manufacturer's guidelines and analyzed by 4-parameter logistic fit to determine EC50 values. […] To compare the balance of activities at the GLP-1R and GCGR between different peptides and across different conditions, these can be correlated, where the EC50's are related to those of comparator peptides.

[2] = target: T2, human glucose-dependent insulinotropic peptide receptor (GIPR) (Homo sapiens, UniProt P48546); assay: cAMP assay, human GIPR cells; type: cell-based
T2 construct: expressed in transfected cells
T2 sequence (P48546 22-466): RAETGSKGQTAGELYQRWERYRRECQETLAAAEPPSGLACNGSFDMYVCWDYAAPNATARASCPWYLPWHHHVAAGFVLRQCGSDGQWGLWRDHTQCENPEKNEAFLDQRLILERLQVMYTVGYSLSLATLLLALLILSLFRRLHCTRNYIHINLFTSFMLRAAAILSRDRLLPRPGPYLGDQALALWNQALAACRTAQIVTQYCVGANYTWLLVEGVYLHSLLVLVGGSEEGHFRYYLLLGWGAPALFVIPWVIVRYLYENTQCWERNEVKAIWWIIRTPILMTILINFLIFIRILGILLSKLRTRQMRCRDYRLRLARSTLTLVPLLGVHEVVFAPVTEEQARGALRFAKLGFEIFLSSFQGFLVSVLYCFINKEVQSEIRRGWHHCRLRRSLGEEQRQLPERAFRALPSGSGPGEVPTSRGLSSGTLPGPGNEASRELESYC
Experimental: as §1, §2, §3, §4, §5

[3] = cAMP assay, first determination (n1), read-out: Primary assay EC50 Gluc-R (n1)
[4] = cAMP assay, second determination (n2), read-out: Primary assay EC50 Gluc-R (n2)
[5] = cAMP assay, first determination (n1), read-out: Primary assay EC50 GIP-R (n1)
[6] = cAMP assay, second determination (n2), read-out: Primary assay EC50 GIP-R (n2)
[7] = tris-lipidated peptides, second replicate, read-out: Primary assay EC50 Gluc-R (n2)
[8] = tris-lipidated peptides, first replicate, read-out: Primary assay EC50 GIP-R (n1)

T1 sequence (P47871 26-477): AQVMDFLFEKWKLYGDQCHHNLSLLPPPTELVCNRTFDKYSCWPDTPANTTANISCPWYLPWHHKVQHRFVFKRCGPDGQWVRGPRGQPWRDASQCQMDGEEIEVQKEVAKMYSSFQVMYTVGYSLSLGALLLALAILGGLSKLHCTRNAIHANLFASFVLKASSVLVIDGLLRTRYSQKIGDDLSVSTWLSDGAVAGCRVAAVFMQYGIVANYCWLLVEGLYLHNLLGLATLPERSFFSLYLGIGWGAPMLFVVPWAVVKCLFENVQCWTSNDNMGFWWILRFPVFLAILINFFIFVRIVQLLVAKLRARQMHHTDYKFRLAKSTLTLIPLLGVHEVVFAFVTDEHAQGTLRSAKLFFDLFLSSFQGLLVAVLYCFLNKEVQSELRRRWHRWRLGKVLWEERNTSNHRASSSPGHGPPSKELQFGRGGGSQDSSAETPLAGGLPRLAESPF

Row | EC50 [1, 3] [nM] | EC50 [1, 4] [nM] | EC50 [2, 5] [nM] | EC50 [2, 6] [nM] | EC50 [1, 7] [nM] | EC50 [2, 8] [nM] | Compound
1 | ≥ 540 | ≥ 540 | ≥ 540 | ≥ 540 |  |  | CC[C@H](C)[C@H](NC(=O)[C@H](Cc1ccccc1)NC(=O)[C@H](CCC(=O)O)NC(=O)[C@H](CCCCN)NC(=O)[C@H](C)NC(=O)[C@H](C)NC(=O)[C@H](CCC(N)=O)NC(=O)CNC(=O)[C@H](CCC(=O)O)NC(=O)[C@H](CC(C)C)NC(=O)[C@H](Cc1ccc(O)cc1)NC(=O)[C@H](CO)NC(=O)[C@](C)(CO)NC(=O)[C@@H](NC(=O)[C@H](CC(=O)O)NC(=O)[C@](C)(CO)NC(=O)[C@@H](NC(=O)[C@H](Cc1ccccc1)NC(=O)[C@@H](NC(=O)CNC(=O)[C@H](CCC(=O)O)NC(=O)C(C)(C)NC(=O)[C@@H](N)Cc1c[nH]cn1)[C@@H](C)O)[C@@H](C)O)C(C)C)C(=O)N[C@@H](C)C(=O)N[C@@H](Cc1c[nH]c2ccccc12)C(=O)N[C@@H](CC(C)C)C(=O)N[C@H](C(=O)N[C@@H](CCCCN)C(=O)NCC(=O)N[C@@H](CCCNC(=N)N)C(N)=O)C(C)C [compound 23]
2 | ≥ 28 | ≥ 28 | ≥ 28 | ≥ 28 |  |  | CCCCCCCCCCCCCCCC(=O)N[C@@H](CCC(=O)NCCCC[C@H](NC(=O)[C@](C)(Cc1ccccc1)NC(=O)[C@H](CCC(=O)O)NC(=O)[C@](C)(CCCCN)NC(=O)[C@H](C)NC(=O)[C@H](C)NC(=O)[C@H](CCC(=O)O)NC(=O)CNC(=O)[C@H](CCC(=O)O)NC(=O)[C@H](CC(C)C)NC(=O)[C@](C)(Cc1ccccc1)NC(=O)[C@H](CO)NC(=O)[C@](C)(CO)NC(=O)[C@@H](NC(=O)[C@H](CC(=O)O)NC(=O)[C@H](CO)NC(=O)[C@@H](NC(=O)[C@](C)(Cc1ccccc1)NC(=O)[C@H](CO)NC(=O)CNC(=O)[C@H](CCC(=O)O)NC(=O)C(C)(C)NC(=O)[C@@H](N)Cc1c[nH]cn1)[C@@H](C)O)C(C)C)C(=O)N[C@@H](C)C(=O)N[C@@](C)(Cc1ccccc1)C(=O)N[C@H](C(=O)N[C@H](C(=O)N[C@@](C)(CCCCN)C(=O)NCC(=O)NCC(N)=O)C(C)C)C(C)C)C(=O)O [compound 77] (H-H[Aib]EGS[αMeF]TSDV[αMeS]S[αMeF]LEGEAA[αMeK]E[αMeF]K([γGlu-Palmitoyl])A[αMeF]VV[αMeK]GG-NH2)
3 |  |  |  |  | 19.8 | 19.8 | CCCCCCCCCCCC(=O)N[C@@H](CCC(=O)NCCOCCOCC(=O)NCCOCCOCC(=O)NCCCC[C@H](NC(=O)[C@H](CCC(=O)O)NC(=O)CNC(=O)[C@H](CCC(=O)O)NC(=O)[C@H](CC(C)C)NC(=O)[C@H](CCCCNC(=O)COCCOCCNC(=O)COCCOCCNC(=O)CC[C@H](NC(=O)CCCCCCCCCCC)C(=O)O)NC(=O)[C@H](CO)NC(=O)[C@](C)(CO)NC(=O)[C@@H](NC(=O)[C@H](CC(=O)O)NC(=O)[C@H](CO)NC(=O)[C@@H](NC(=O)[C@](C)(Cc1ccccc1)NC(=O)[C@H](CO)NC(=O)CNC(=O)[C@H](CCC(=O)O)NC(=O)C(C)(C)NC(=O)[C@@H](N)Cc1c[nH]cn1)[C@@H](C)O)C(C)C)C(=O)N[C@@H](C)C(=O)N[C@@](C)(CCCCN)C(=O)N[C@@H](CCC(=O)O)C(=O)N[C@@H](Cc1ccccc1)C(=O)N[C@H](C(=O)N[C@@H](C)C(=O)N[C@@H](Cc1ccccc1)C(=O)N[C@@H](CCCCNC(=O)COCCOCCNC(=O)COCCOCCNC(=O)CC[C@H](NC(=O)CCCCCCCCCCC)C(=O)O)C(=O)N[C@H](C(=O)N[C@@H](CCC(=O)O)C(=O)NCC(=O)NCC(N)=O)C(C)C)[C@@H](C)CC)C(=O)O [compound 481] (H-H[Aib]EGS[αMeF]TSDV[αMeS]SK([AEEA-AEEA-γGlu-Lauroyl])LEGEK([AEEA-AEEA-γGlu-Lauroyl])A[αMeK]EFIAFK([AEEA-AEEA-γGlu-Lauroyl])VEGG-NH2; N-terminus assumed)
4 | ≥ 100 | ≥ 100 | ≥ 100 | ≥ 100 |  |  | CC[C@H](C)[C@H](NC(=O)[C@](C)(Cc1ccccc1)NC(=O)[C@H](CCC(=O)O)NC(=O)[C@](C)(CCCCN)NC(=O)[C@H](C)NC(=O)[C@H](C)NC(=O)[C@H](CCC(=O)O)NC(=O)CNC(=O)[C@H](CCC(=O)O)NC(=O)[C@H](CC(C)C)NC(=O)[C@](C)(Cc1ccccc1)NC(=O)[C@H](CO)NC(=O)[C@](C)(CO)NC(=O)[C@@H](NC(=O)[C@H](CC(=O)O)NC(=O)[C@@H](NC(=O)[C@@H](NC(=O)[C@](C)(Cc1ccccc1)NC(=O)[C@H](CO)NC(=O)CNC(=O)[C@H](CCC(=O)O)NC(=O)C(C)(C)NC(=O)[C@@H](N)Cc1c[nH]cn1)[C@@H](C)O)[C@@H](C)O)C(C)C)C(=O)N[C@@H](C)C(=O)N[C@@](C)(Cc1ccccc1)C(=O)N[C@H](C(=O)N[C@H](C(=O)N[C@@](C)(CCCCN)C(=O)NCC(=O)NCC(N)=O)C(C)C)C(C)C [compound 29] (H-H[Aib]EGS[αMeF]TTDV[αMeS]S[αMeF]LEGEAA[αMeK]E[αMeF]IA[αMeF]VV[αMeK]GG-NH2)
5 |  |  |  |  | 19.9 | 19.9 | CCCCCCCCCCCC(=O)N[C@@H](CCC(=O)NCCOCCOCC(=O)NCCOCCOCC(=O)NCCCC[C@H](NC(=O)[C@H](CC(=O)O)NC(=O)[C@H](CO)NC(=O)[C@@H](NC(=O)[C@](C)(Cc1ccccc1)NC(=O)[C@H](CO)NC(=O)CNC(=O)[C@H](CCC(=O)O)NC(=O)C(C)(C)NC(=O)[C@@H](N)Cc1c[nH]cn1)[C@@H](C)O)C(=O)N[C@@H](CO)C(=O)N[C@@H](CO)C(=O)N[C@@H](Cc1ccc(O)cc1)C(=O)N[C@@H](CC(C)C)C(=O)N[C@@H](CCC(=O)O)C(=O)NCC(=O)N[C@@H](CCC(=O)O)C(=O)N[C@@H](C)C(=O)N[C@@H](C)C(=O)N[C@@](C)(CCCCN)C(=O)N[C@@H](CCCCNC(=O)COCCOCCNC(=O)COCCOCCNC(=O)CC[C@H](NC(=O)CCCCCCCCCCC)C(=O)O)C(=O)N[C@@H](Cc1ccccc1)C(=O)N[C@H](C(=O)N[C@@H](C)C(=O)N[C@@H](Cc1ccccc1)C(=O)N[C@@H](CCCCNC(=O)COCCOCCNC(=O)COCCOCCNC(=O)CC[C@H](NC(=O)CCCCCCCCCCC)C(=O)O)C(=O)N[C@H](C(=O)N[C@@H](CCC(=O)O)C(=O)NCC(=O)NCC(N)=O)C(C)C)[C@@H](C)CC)C(=O)O [compound 474] (H-H[Aib]EGS[αMeF]TSDK([AEEA-AEEA-γGlu-Lauroyl])SSYLEGEAA[αMeK]K([AEEA-AEEA-γGlu-Lauroyl])FIAFK([AEEA-AEEA-γGlu-Lauroyl])VEGG-NH2; N-terminus assumed)
6 | ≥ 29 | ≥ 29 | ≥ 29 | ≥ 29 |  |  | CC[C@H](C)[C@H](NC(=O)[C@](C)(Cc1ccccc1)NC(=O)[C@H](CCC(=O)O)NC(=O)[C@](C)(CCCCN)NC(=O)[C@H](C)NC(=O)[C@H](C)NC(=O)[C@H](CCC(=O)O)NC(=O)CNC(=O)[C@H](CCC(=O)O)NC(=O)[C@H](CC(C)C)NC(=O)[C@](C)(Cc1ccccc1)NC(=O)[C@H](CO)NC(=O)[C@H](CO)NC(=O)[C@@H](NC(=O)[C@H](CCC(=O)O)NC(=O)[C@H](CO)NC(=O)[C@H](CO)NC(=O)[C@](C)(Cc1ccccc1)NC(=O)[C@H](CO)NC(=O)CNC(=O)[C@H](CCC(=O)O)NC(=O)C(C)(C)NC(=O)[C@@H](N)Cc1c[nH]cn1)C(C)C)C(=O)N[C@@H](C)C(=O)N[C@@](C)(Cc1ccccc1)C(=O)N[C@H](C(=O)N[C@H](C(=O)N[C@@](C)(CCCCN)C(=O)NCC(=O)NCC(N)=O)C(C)C)C(C)C [compound 9] (H-H[Aib]EGS[αMeF]SSEVSS[αMeF]LEGEAA[αMeK]E[αMeF]IA[αMeF]VV[αMeK]GG-NH2; N-terminus assumed)
7 | ≥ 100 | ≥ 100 | ≥ 100 | ≥ 100 |  |  | CC[C@H](C)[C@H](NC(=O)[C@](C)(Cc1ccccc1)NC(=O)[C@H](CCC(=O)O)NC(=O)[C@](C)(CCCCN)NC(=O)[C@H](C)NC(=O)[C@H](C)NC(=O)[C@H](CCC(=O)O)NC(=O)CNC(=O)[C@H](CCC(=O)O)NC(=O)[C@@H](NC(=O)[C@](C)(Cc1ccccc1)NC(=O)[C@H](CO)NC(=O)[C@H](CO)NC(=O)[C@@H](NC(=O)[C@H](CC(=O)O)NC(=O)[C@H](CO)NC(=O)[C@@H](NC(=O)[C@](C)(Cc1ccccc1)NC(=O)[C@H](CO)NC(=O)CNC(=O)[C@H](CCC(=O)O)NC(=O)C(C)(C)NC(=O)[C@@H](N)Cc1c[nH]cn1)[C@@H](C)O)C(C)C)C(C)C)C(=O)N[C@@H](C)C(=O)N[C@@](C)(Cc1ccccc1)C(=O)N[C@H](C(=O)N[C@H](C(=O)N[C@@](C)(CCCCN)C(=O)NCC(=O)NCC(N)=O)C(C)C)C(C)C [compound 10] (H-H[Aib]EGS[αMeF]TSDVSS[αMeF]VEGEAA[αMeK]E[αMeF]IA[αMeF]VV[αMeK]GG-NH2; N-terminus assumed)
